Measurements reported in patent US12661409B2, “Target validation and profiling of the RNA targets of small molecules” (priority 2018, dated 2026).

Legend:
[1] = target: DNA; experiment: Microscale thermophoresis (MST) affinity for DNA; format: binding
[2] = tested on: mature miR-96; conditions: triple negative breast cancer (TNBC) cells; cited from earlier work
[3] = tested on: pri-miR-96; experiment: RT-qPCR of pri-miR-96 levels; format: cell-based
[4] = tested on: mature miR-96; experiment: RT-qPCR of mature miR-96 levels; format: cell-based; conditions: MDA-MB-231 TNBC cells; 2 complexed with Fe2+ (1 equivalent)
[5] = tested on: MDA-MB-231 cells; conditions: TNBC cells; cited from earlier work
[6] = tested on: FOXO1 protein; conditions: TNBC cells; cited from earlier work
[7] = target: pri-miR-96; experiment: Microscale thermophoresis (MST) affinity for pri-miR-96; format: binding

Row | Molecule | Kd [1] [nM] | Effect on production of mature miR-96 (earlier study) [2] | Effect on pri-miR-96 levels ([3]; MDA-MB-231 TNBC cells, 2 complexed with Fe2+ (1 equivalent)) | Competition of the pri-miR-96 cleavage caused by 2 ([3]; increasing concentrations of 1 (5 to 500 nM), constant 2 (500 nM), MDA-MB-231 cells) | Effect on mature miR-96 levels [4] | Effect on apoptosis (earlier study) [5] | Effect on FOXO1 (earlier study) [6] | Kd [7] [nM]
1 | Cc1c(N)nc([C@H](CC(N)=O)NC[C@H](N)C(N)=O)nc1C(=O)N[C@H](C(=O)N[C@H](C)[C@@H](O)[C@H](C)C(=O)N[C@H](C(=O)NCCc1nc(-c2nc(C(=O)NCCCNCCCCN)cs2)cs1)[C@@H](C)O)[C@@H](O[C@@H]1O[C@@H](CO)[C@@H](O)[C@H](O)[C@@H]1O[C@@H]1O[C@H](CO)[C@@H](O)[C@H](OC(N)=O)[C@@H]1O)c1cnc[nH]1 [bleomycin A5] | ~1000 | – | – | – | – | – | – | –
2 | Targaprimir-96 [Compound 1] | – | inhibited the production of mature miR-96 | increased | effectively competed off | reduced | triggered apoptosis | de-repressed | 39 ± 18
